From the supplement of paper PMC4862054

What follows are compounds tested on BT-474 (assay: normalised response (% of control), CellTox Green; higher = less cell death (100 = DMSO, 0 = benzethonium chloride kill control)). Conditions: incubation time: 72 h.
In short: (§1)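 Compound was dispensed into 384-well plates at 5 concentrations in 10-fold steps spanning a 10,000-fold range specific to that compound. Breast cancer cell lines were added as 20 µl suspension and left for 72 h before CellTox Green fluorescence (485/520 nm) and then CellTiter-Glo luminescence, read after 10 min at room temperature. Each reported value is the normalised signal at one concentration, with 0.1 % DMSO set at 100 and a positive kill control at 0 on each plate.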

| SMILES | normalised response [%] |
| --- | --- |
| NC(=O)c1ccc(I)c([N+](=O)[O-])c1 [Iniparib] (10000 nM) | 89.9 |
| CCc1c2c(nc3ccc(OC(=O)N4CCC(N5CCCCC5)CC4)cc13)-c1cc3c(c(=O)n1C2)COC(=O)[C@]3(O)CC [Irinotecan] (1000 nM) | 103 |
| CCc1c2c(nc3ccc(OC(=O)N4CCC(N5CCCCC5)CC4)cc13)-c1cc3c(c(=O)n1C2)COC(=O)[C@]3(O)CC [Irinotecan] (10000 nM) | 102 |
| Oc1ccc2c(c1)CC[C@H](c1ccccc1)[C@@H]2c1ccc(OCCN2CCCC2)cc1 [Lasofoxifene] (100 nM) | 103 |
| Oc1ccc2c(c1)CC[C@H](c1ccccc1)[C@@H]2c1ccc(OCCN2CCCC2)cc1 [Lasofoxifene] (1000 nM) | 99.8 |
| Cc1ccc(NC(=O)c2ccc(CN3CCN(C)CC3)cc2)cc1Nc1nc(-c2cccnc2)cs1 [Masitinib] (1000 nM) | 102 |
| Cc1ccc(NC(=O)c2ccc(CN3CCN(C)CC3)cc2)cc1Nc1nc(-c2cccnc2)cs1 [Masitinib] (10000 nM) | 53.3 |
| O=C(Nc1cccnc1)N1CCC(Cc2cccc(Oc3ccc(C(F)(F)F)cn3)c2)CC1 [PF-3845] (1000 nM) | 102 |
| COCC1(CO)C(=O)C2CCN1CC2 (stereo not drawn) [Prima-1 Met] (10000 nM) | 101 |
| CNC(=O)c1cc(Oc2ccc(NC(=O)Nc3ccc(Cl)c(C(F)(F)F)c3)c(F)c2)ccn1 [Regorafenib] (1000 nM) | 101 |
| c1ccc2c(CCNc3ccc(Nc4ccncc4)cc3)c[nH]c2c1 [Serdemetan] (1000 nM) | 99.5 |
| CN(C)CCOc1ccc(/C(=C(/CCCl)c2ccccc2)c2ccccc2)cc1 [Toremifene] (1000 nM) | 100 |
| CN(C)CCOc1ccc(/C(=C(/CCCl)c2ccccc2)c2ccccc2)cc1 [Toremifene] (10000 nM) | 22.9 |

The compounds below were run on CAL-120 in the same assay as above. Conditions: incubation time: 72 h.
In short: as §1

| SMILES | normalised response [%] |
| --- | --- |
| N#Cc1ccc(COC[C@H]2O[C@@H](n3c(NCc4ccc(Cl)c(Cl)c4)nc4c(N)ncnc43)[C@H](O)[C@@H]2O)cc1 (1000 nM) | 96.4 |
| N#Cc1ccc(COC[C@H]2O[C@@H](n3c(NCc4ccc(Cl)c(Cl)c4)nc4c(N)ncnc43)[C@H](O)[C@@H]2O)cc1 (10000 nM) | 98.2 |
| COc1cc(OC2CCN(C)CC2)ccc1Nc1ncc2c(n1)n(C1CCCC1)c(=O)n2C [AZ 3146] (1000 nM) | 100 |
| COc1cc(OC2CCN(C)CC2)ccc1Nc1ncc2c(n1)n(C1CCCC1)c(=O)n2C [AZ 3146] (10000 nM) | 94.6 |
| CN(C)c1nc(N(C)C)nc(N(C)C)n1 [Altretamine] (1000 nM) | 104 |
| CN(C)c1nc(N(C)C)nc(N(C)C)n1 [Altretamine] (10000 nM) | 102 |
| O=C(/C=C/c1cccc(S(=O)(=O)Nc2ccccc2)c1)NO [Belinostat] (1000 nM) | 70.4 |
| O=C(/C=C/c1cccc(S(=O)(=O)Nc2ccccc2)c1)NO [Belinostat] (10000 nM) | -14 |
| O=P1(N(CCCl)CCCl)NCCCO1 (stereo not drawn) [Cyclophosphamide] (4000 nM) | 101 |
| O=P1(N(CCCl)CCCl)NCCCO1 (stereo not drawn) [Cyclophosphamide] (40000 nM) | 98.7 |
| C=C1C[C@@H]2[C@H](CC[C@]3(C)C(=O)CC[C@@H]23)[C@@]2(C)C=CC(=O)C=C12 [Exemestane] (1000 nM) | 105 |
| C=C1C[C@@H]2[C@H](CC[C@]3(C)C(=O)CC[C@@H]23)[C@@]2(C)C=CC(=O)C=C12 [Exemestane] (10000 nM) | 103 |
| COc1cc2ncnc(Nc3ccc(F)c(Cl)c3)c2cc1OCCCN1CCOCC1 [Gefitinib] (1000 nM) | 100 |
| COc1cc2ncnc(Nc3ccc(F)c(Cl)c3)c2cc1OCCCN1CCOCC1 [Gefitinib] (10000 nM) | 95.4 |
| O=C(Nc1ccncc1)C(=O)c1cn(Cc2ccc(Cl)cc2)c2ccccc12 [Indibulin] (1000 nM) | 89.4 |
| O=C(Nc1ccncc1)C(=O)c1cn(Cc2ccc(Cl)cc2)c2ccccc12 [Indibulin] (10000 nM) | 85.8 |
| NC(=O)c1ccc(I)c([N+](=O)[O-])c1 [Iniparib] (1000 nM) | 93.3 |
| NC(=O)c1ccc(I)c([N+](=O)[O-])c1 [Iniparib] (10000 nM) | 88.8 |
| CCc1c2c(nc3ccc(OC(=O)N4CCC(N5CCCCC5)CC4)cc13)-c1cc3c(c(=O)n1C2)COC(=O)[C@]3(O)CC [Irinotecan] (1000 nM) | 93.5 |
| CCc1c2c(nc3ccc(OC(=O)N4CCC(N5CCCCC5)CC4)cc13)-c1cc3c(c(=O)n1C2)COC(=O)[C@]3(O)CC [Irinotecan] (10000 nM) | 74.3 |
| Oc1ccc2c(c1)CC[C@H](c1ccccc1)[C@@H]2c1ccc(OCCN2CCCC2)cc1 [Lasofoxifene] (100 nM) | 93.6 |
| Oc1ccc2c(c1)CC[C@H](c1ccccc1)[C@@H]2c1ccc(OCCN2CCCC2)cc1 [Lasofoxifene] (1000 nM) | 99.7 |
| Cc1ccc(NC(=O)c2ccc(CN3CCN(C)CC3)cc2)cc1Nc1nc(-c2cccnc2)cs1 [Masitinib] (1000 nM) | 99.2 |
| Cc1ccc(NC(=O)c2ccc(CN3CCN(C)CC3)cc2)cc1Nc1nc(-c2cccnc2)cs1 [Masitinib] (10000 nM) | 78.5 |
| O=C(Nc1cccnc1)N1CCC(Cc2cccc(Oc3ccc(C(F)(F)F)cn3)c2)CC1 [PF-3845] (1000 nM) | 106 |
| COCC1(CO)C(=O)C2CCN1CC2 (stereo not drawn) [Prima-1 Met] (10000 nM) | 92.1 |
| CNC(=O)c1cc(Oc2ccc(NC(=O)Nc3ccc(Cl)c(C(F)(F)F)c3)c(F)c2)ccn1 [Regorafenib] (1000 nM) | 102 |
| c1ccc2c(CCNc3ccc(Nc4ccncc4)cc3)c[nH]c2c1 [Serdemetan] (1000 nM) | 97.1 |
| CN(C)CCOc1ccc(/C(=C(/CCCl)c2ccccc2)c2ccccc2)cc1 [Toremifene] (1000 nM) | 99 |
| CN(C)CCOc1ccc(/C(=C(/CCCl)c2ccccc2)c2ccccc2)cc1 [Toremifene] (10000 nM) | 91.8 |

What follows are compounds tested on CAL-148 in the same assay as above. Conditions: incubation time: 72 h.
In short: as §1

| SMILES | normalised response [%] |
| --- | --- |
| N#Cc1ccc(COC[C@H]2O[C@@H](n3c(NCc4ccc(Cl)c(Cl)c4)nc4c(N)ncnc43)[C@H](O)[C@@H]2O)cc1 (1000 nM) | 107 |
| N#Cc1ccc(COC[C@H]2O[C@@H](n3c(NCc4ccc(Cl)c(Cl)c4)nc4c(N)ncnc43)[C@H](O)[C@@H]2O)cc1 (10000 nM) | 95.2 |
| COc1cc(OC2CCN(C)CC2)ccc1Nc1ncc2c(n1)n(C1CCCC1)c(=O)n2C [AZ 3146] (1000 nM) | 90.9 |
| COc1cc(OC2CCN(C)CC2)ccc1Nc1ncc2c(n1)n(C1CCCC1)c(=O)n2C [AZ 3146] (10000 nM) | 60.4 |
| CN(C)c1nc(N(C)C)nc(N(C)C)n1 [Altretamine] (1000 nM) | 101 |
| CN(C)c1nc(N(C)C)nc(N(C)C)n1 [Altretamine] (10000 nM) | 91 |
| O=C(/C=C/c1cccc(S(=O)(=O)Nc2ccccc2)c1)NO [Belinostat] (1000 nM) | 66.4 |
| O=C(/C=C/c1cccc(S(=O)(=O)Nc2ccccc2)c1)NO [Belinostat] (10000 nM) | 26.6 |
| O=P1(N(CCCl)CCCl)NCCCO1 (stereo not drawn) [Cyclophosphamide] (4000 nM) | 104 |
| O=P1(N(CCCl)CCCl)NCCCO1 (stereo not drawn) [Cyclophosphamide] (40000 nM) | 102 |
| C=C1C[C@@H]2[C@H](CC[C@]3(C)C(=O)CC[C@@H]23)[C@@]2(C)C=CC(=O)C=C12 [Exemestane] (1000 nM) | 96.9 |
| C=C1C[C@@H]2[C@H](CC[C@]3(C)C(=O)CC[C@@H]23)[C@@]2(C)C=CC(=O)C=C12 [Exemestane] (10000 nM) | 106 |
| COc1cc2ncnc(Nc3ccc(F)c(Cl)c3)c2cc1OCCCN1CCOCC1 [Gefitinib] (1000 nM) | 89.8 |
| COc1cc2ncnc(Nc3ccc(F)c(Cl)c3)c2cc1OCCCN1CCOCC1 [Gefitinib] (10000 nM) | 48.3 |
| O=C(Nc1ccncc1)C(=O)c1cn(Cc2ccc(Cl)cc2)c2ccccc12 [Indibulin] (1000 nM) | 96.3 |
| O=C(Nc1ccncc1)C(=O)c1cn(Cc2ccc(Cl)cc2)c2ccccc12 [Indibulin] (10000 nM) | 65.3 |
| NC(=O)c1ccc(I)c([N+](=O)[O-])c1 [Iniparib] (1000 nM) | 82.5 |
| NC(=O)c1ccc(I)c([N+](=O)[O-])c1 [Iniparib] (10000 nM) | 101 |
| CCc1c2c(nc3ccc(OC(=O)N4CCC(N5CCCCC5)CC4)cc13)-c1cc3c(c(=O)n1C2)COC(=O)[C@]3(O)CC [Irinotecan] (1000 nM) | 29.8 |
| CCc1c2c(nc3ccc(OC(=O)N4CCC(N5CCCCC5)CC4)cc13)-c1cc3c(c(=O)n1C2)COC(=O)[C@]3(O)CC [Irinotecan] (10000 nM) | 44.4 |
| Oc1ccc2c(c1)CC[C@H](c1ccccc1)[C@@H]2c1ccc(OCCN2CCCC2)cc1 [Lasofoxifene] (100 nM) | 62.9 |
| Oc1ccc2c(c1)CC[C@H](c1ccccc1)[C@@H]2c1ccc(OCCN2CCCC2)cc1 [Lasofoxifene] (1000 nM) | 103 |
| Cc1ccc(NC(=O)c2ccc(CN3CCN(C)CC3)cc2)cc1Nc1nc(-c2cccnc2)cs1 [Masitinib] (1000 nM) | 97.3 |
| Cc1ccc(NC(=O)c2ccc(CN3CCN(C)CC3)cc2)cc1Nc1nc(-c2cccnc2)cs1 [Masitinib] (10000 nM) | 101 |
| O=C(Nc1cccnc1)N1CCC(Cc2cccc(Oc3ccc(C(F)(F)F)cn3)c2)CC1 [PF-3845] (1000 nM) | 107 |
| COCC1(CO)C(=O)C2CCN1CC2 (stereo not drawn) [Prima-1 Met] (10000 nM) | 99.3 |
| CNC(=O)c1cc(Oc2ccc(NC(=O)Nc3ccc(Cl)c(C(F)(F)F)c3)c(F)c2)ccn1 [Regorafenib] (1000 nM) | 103 |
| c1ccc2c(CCNc3ccc(Nc4ccncc4)cc3)c[nH]c2c1 [Serdemetan] (1000 nM) | 73.4 |
| CN(C)CCOc1ccc(/C(=C(/CCCl)c2ccccc2)c2ccccc2)cc1 [Toremifene] (1000 nM) | 89.1 |
| CN(C)CCOc1ccc(/C(=C(/CCCl)c2ccccc2)c2ccccc2)cc1 [Toremifene] (10000 nM) | 59.6 |

These compounds were tested on MDA-MB-231 in the same assay as above. Conditions: incubation time: 72 h.
In short: as §1

| SMILES | normalised response [%] |
| --- | --- |
| N#Cc1ccc(COC[C@H]2O[C@@H](n3c(NCc4ccc(Cl)c(Cl)c4)nc4c(N)ncnc43)[C@H](O)[C@@H]2O)cc1 (1000 nM) | 114 |
| N#Cc1ccc(COC[C@H]2O[C@@H](n3c(NCc4ccc(Cl)c(Cl)c4)nc4c(N)ncnc43)[C@H](O)[C@@H]2O)cc1 (10000 nM) | 105 |
| COc1cc(OC2CCN(C)CC2)ccc1Nc1ncc2c(n1)n(C1CCCC1)c(=O)n2C [AZ 3146] (10000 nM) | 81.8 |
| CN(C)c1nc(N(C)C)nc(N(C)C)n1 [Altretamine] (1000 nM) | 110 |
| CN(C)c1nc(N(C)C)nc(N(C)C)n1 [Altretamine] (10000 nM) | 112 |
